#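 Five compound concentrations were applied to cells in 96-well plates for 48 hours; endpoints were derived by simple linear interpolation of the resulting dose-response curve. Abbreviation: GI50, concentration required for 50% inhibition of growth. TGI is the concentration that stops growth completely.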
# Key:
# Assay in all cases: inhibition of tumour cell growth, NCI panel, 48 h
# [1] = tested on: HCT-15 colon
# [2] = tested on: KM12 colon
# [3] = tested on: MOLT-4 leukemia
# [4] = tested on: NCI-H460 lung
# [5] = tested on: OVCAR-8 ovarian
# [6] = tested on: SN12C renal
# [7] = tested on: UACC-62 melanoma
# [8] = tested on: HS 578T breast
# [9] = tested on: MCF7 breast
# [10] = tested on: MDA-MB-231 breast
SMILES,TGI [1] [µM],TGI [2] [µM],TGI [3] [µM],TGI [4] [µM],TGI [5] [µM],TGI [6] [µM],TGI [7] [µM],TGI [8] [µM],TGI [9] [µM],TGI [10] [µM],GI50 [1] [µM],GI50 [2] [µM],GI50 [4] [µM],GI50 [5] [µM],GI50 [6] [µM],GI50 [7] [µM],GI50 [10] [µM],GI50 [3] [µM]
C=CC(=O)NCCSCCCOC1(C(=O)O)CC(O)C(NC(C)=O)C(C(O)C(O)CO)O1 (configuration not stated),> 100,> 100,> 100,> 100,> 100,> 100,> 100,–,–,–,–,–,–,–,–,–,–,–
CC1=C(O)c2cn(C)cc2C(=O)C1=O,> 100,> 100,> 100,> 100,> 100,> 100,> 100,–,–,–,–,–,–,–,–,–,–,–
C=C1CC2CCCC12C=O (configuration not stated),> 10,> 10,> 10,–,> 10,> 10,> 10,> 10,> 10,> 10,–,–,–,–,–,–,–,–
CN(C)c1ccc(/C=C/C(=O)[O-])cc1.CN(C)c1ccc(/C=C/C(=O)[O-])cc1.[Cu+2],> 100,> 100,> 100,> 100,> 100,> 100,> 62.9,–,–,–,–,–,–,–,–,–,–,–
COC(=O)CCC(NC(=S)N/N=C/c1ccccn1)C(=O)OC (configuration not stated),> 100,> 100,> 100,> 100,> 100,> 100,> 100,–,–,–,–,–,–,–,–,–,–,–
Nc1cc(F)ccc1CC(=O)O,> 100,> 100,> 100,–,> 100,> 100,> 100,> 100,> 100,> 100,–,–,–,–,–,–,–,–
O=C1/C(=N\O)c2ccccc2S1(=O)=O,> 100,> 100,> 100,> 100,> 100,> 100,> 100,–,–,–,–,–,–,–,–,–,–,–
C#CCNC(=O)N(CC#C)N=O,> 100,> 100,> 100,> 100,> 100,> 100,> 100,–,–,–,–,–,–,–,–,–,–,–
N.N.NCCCCCN.O=C([O-])CCl.O=C([O-])CCl.O=C([O-])CCl.O=C([O-])CCl.[Pt+4].[Pt+4],> 100,> 100,–,18.6,> 100,1.69,53.9,–,–,–,31.8,20.9,0.316,14,0.161,0.406,–,–
O=c1cc(-c2ccccc2)oc2ccc(OC/C(=N/O)c3ccccc3)cc12,> 50,> 50,> 50,16.9,> 50,33.9,> 50,–,–,> 50,2.19,1.95,1.97,3.82,2.79,2.48,2.63,5.72
Nc1c(-c2cn(Cc3ccccc3)c3ccccc23)[n+]([O-])c2ccccc2[n+]1[O-],> 100,> 100,92.3,> 100,> 100,> 100,> 100,–,–,–,–,–,–,–,–,–,–,–
CC1=Nc2ccccc2NC(c2ccoc2)C1 (configuration not stated),> 100,> 100,> 100,> 100,> 100,> 100,> 100,–,–,–,–,–,–,–,–,–,–,–

# Reference: PubChem BioAssay (NCI)
